Source: patent US20240150375A1, “MACROCYCLIC COMPOUNDS AND USES THEREOF” (Theseus Pharmaceuticals, Inc., priority 2021, published 2024)

Legend:
Ba/F3 EGFR-Del19/C797S = Ba/F3 EGFR-Del19/C797S (Homo sapiens, UniProt P00533, C797S, cells depend on it, form not given); experiment: Ba/F3 viability assay (CellTiter-Glo), EGFR-Del19/C797S (DC); type: cell-based; settings: Ba/F3 EGFR-Del19/C797S anti-proliferation; read-out: BAF3 DC IC50
Text: (§1) Inhibition of cell proliferation can be studied using Ba/F3 viability assays, including the Promega CellTiter-Glo cell viability assay. This assay can be used to study the effect of compounds described herein in the following assays: (1) Ba/F3 Parental; (2) Ba/F3 EGFR-Del19/T790M; (3); Ba/F3 EGFR-Del19/C797S; and (4) Ba/F3 EGFR-Del119/T790M/C797S.
(§2) One hundred thirty six compounds were studied using the kinase (EGFR) and BA/F3 assays described herein, with more than 60% of the tested compounds providing IC50<50 nM values in all six assays. Accordingly, compounds of the invention are a new general class of kinase inhibitors, including potent inhibitors of EGFR mutants.
(§3) Exemplary kinase inhibition (Kinase) and anti-proliferation activity (Ba/F3) data are shown in Table 1 for certain compounds of the invention and are categorized according to the below legend.

[1] = biological target: Ba/F3 EGFR-Del19/T790M/C797S (Homo sapiens, UniProt P00533, T790M/C797S, cells depend on it, form not given); experiment: Ba/F3 viability assay (CellTiter-Glo), EGFR-Del19/T790M/C797S (DTC); type: cell-based; settings: Ba/F3 EGFR-Del19/T790M/C797S anti-proliferation; read-out: BAF3 DTC IC50
Sequence of Ba/F3 EGFR-Del19/T790M/C797S (P00533 with tags, fused parts or gaps DEL746-750/T790M/C797S, form open): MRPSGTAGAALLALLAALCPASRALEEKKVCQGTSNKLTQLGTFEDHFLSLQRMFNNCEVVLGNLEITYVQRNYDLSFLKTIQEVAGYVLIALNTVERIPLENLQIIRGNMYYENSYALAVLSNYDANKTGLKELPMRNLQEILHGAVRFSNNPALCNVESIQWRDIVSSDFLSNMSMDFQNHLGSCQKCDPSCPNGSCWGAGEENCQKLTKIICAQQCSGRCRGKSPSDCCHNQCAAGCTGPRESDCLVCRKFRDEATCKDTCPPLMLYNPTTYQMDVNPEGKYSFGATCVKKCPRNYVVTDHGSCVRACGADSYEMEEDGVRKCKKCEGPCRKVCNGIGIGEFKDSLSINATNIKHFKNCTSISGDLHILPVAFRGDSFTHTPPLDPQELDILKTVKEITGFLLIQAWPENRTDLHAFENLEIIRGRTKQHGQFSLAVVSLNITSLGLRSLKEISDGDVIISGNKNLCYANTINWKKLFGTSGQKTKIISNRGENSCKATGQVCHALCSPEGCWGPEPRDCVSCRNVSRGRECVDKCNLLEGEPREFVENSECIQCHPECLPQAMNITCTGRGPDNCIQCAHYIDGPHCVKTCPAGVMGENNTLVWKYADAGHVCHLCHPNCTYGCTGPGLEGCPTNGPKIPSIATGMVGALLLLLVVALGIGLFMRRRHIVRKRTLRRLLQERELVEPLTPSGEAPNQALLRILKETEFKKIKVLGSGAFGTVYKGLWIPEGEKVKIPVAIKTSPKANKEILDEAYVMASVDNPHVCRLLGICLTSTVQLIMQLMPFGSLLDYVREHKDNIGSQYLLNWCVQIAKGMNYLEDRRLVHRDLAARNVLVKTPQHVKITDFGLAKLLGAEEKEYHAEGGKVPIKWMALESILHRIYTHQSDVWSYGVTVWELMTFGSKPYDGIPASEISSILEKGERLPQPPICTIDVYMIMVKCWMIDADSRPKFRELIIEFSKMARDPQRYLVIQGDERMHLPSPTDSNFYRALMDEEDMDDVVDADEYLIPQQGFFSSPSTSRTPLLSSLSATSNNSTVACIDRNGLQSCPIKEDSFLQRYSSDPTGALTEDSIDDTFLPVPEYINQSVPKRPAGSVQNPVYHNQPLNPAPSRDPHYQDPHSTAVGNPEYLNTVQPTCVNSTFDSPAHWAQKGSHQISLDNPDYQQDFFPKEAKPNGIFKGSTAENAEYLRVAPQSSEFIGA
Text: as §1, §2, §3

EGFR^L858R/T790M = EGFR^L858R/T790M (Homo sapiens, UniProt P00533, L858R/T790M); experiment: HTRF KinEASE-TK in vitro kinase assay, EGFR L858R/T790M (LT); type: biochemical; settings: EGFR L858R/T790M kinase inhibition
Text: (§4) The biological activity of compounds described herein can be studied according to standard methods known in the art. Methods can be used to study inhibition of EGFR, including mutant forms of EGFR comprising L858R, T790M, C797S, and/or Del19 mutations, or any combination thereof (e.g., L858R single, double, or triple mutants). Exemplary, non-limiting methods are described herein.
(§5) Assays using an in vitro kinase assay kit (HTRF KinEASE-TK kit) can be used to study the inhibitory activity of compounds described herein with respect to EGFR mutants such as ECFR^L858R, EGFR^L858R/T790M, and EGFR^L858R/T790M/C797S.
as §2, §3

Ba/F3 EGFR-Del19/T790M = Ba/F3 EGFR-Del19/T790M (Homo sapiens, UniProt P00533, T790M, cells depend on it, form not given); experiment: Ba/F3 viability assay (CellTiter-Glo), EGFR-Del19/T790M (DT); type: cell-based; settings: Ba/F3 EGFR-Del19/T790M anti-proliferation; read-out: BAF3 DT IC50
Sequence of Ba/F3 EGFR-Del19/T790M (P00533 with tags, fused parts or gaps DEL746-750/T790M, form open): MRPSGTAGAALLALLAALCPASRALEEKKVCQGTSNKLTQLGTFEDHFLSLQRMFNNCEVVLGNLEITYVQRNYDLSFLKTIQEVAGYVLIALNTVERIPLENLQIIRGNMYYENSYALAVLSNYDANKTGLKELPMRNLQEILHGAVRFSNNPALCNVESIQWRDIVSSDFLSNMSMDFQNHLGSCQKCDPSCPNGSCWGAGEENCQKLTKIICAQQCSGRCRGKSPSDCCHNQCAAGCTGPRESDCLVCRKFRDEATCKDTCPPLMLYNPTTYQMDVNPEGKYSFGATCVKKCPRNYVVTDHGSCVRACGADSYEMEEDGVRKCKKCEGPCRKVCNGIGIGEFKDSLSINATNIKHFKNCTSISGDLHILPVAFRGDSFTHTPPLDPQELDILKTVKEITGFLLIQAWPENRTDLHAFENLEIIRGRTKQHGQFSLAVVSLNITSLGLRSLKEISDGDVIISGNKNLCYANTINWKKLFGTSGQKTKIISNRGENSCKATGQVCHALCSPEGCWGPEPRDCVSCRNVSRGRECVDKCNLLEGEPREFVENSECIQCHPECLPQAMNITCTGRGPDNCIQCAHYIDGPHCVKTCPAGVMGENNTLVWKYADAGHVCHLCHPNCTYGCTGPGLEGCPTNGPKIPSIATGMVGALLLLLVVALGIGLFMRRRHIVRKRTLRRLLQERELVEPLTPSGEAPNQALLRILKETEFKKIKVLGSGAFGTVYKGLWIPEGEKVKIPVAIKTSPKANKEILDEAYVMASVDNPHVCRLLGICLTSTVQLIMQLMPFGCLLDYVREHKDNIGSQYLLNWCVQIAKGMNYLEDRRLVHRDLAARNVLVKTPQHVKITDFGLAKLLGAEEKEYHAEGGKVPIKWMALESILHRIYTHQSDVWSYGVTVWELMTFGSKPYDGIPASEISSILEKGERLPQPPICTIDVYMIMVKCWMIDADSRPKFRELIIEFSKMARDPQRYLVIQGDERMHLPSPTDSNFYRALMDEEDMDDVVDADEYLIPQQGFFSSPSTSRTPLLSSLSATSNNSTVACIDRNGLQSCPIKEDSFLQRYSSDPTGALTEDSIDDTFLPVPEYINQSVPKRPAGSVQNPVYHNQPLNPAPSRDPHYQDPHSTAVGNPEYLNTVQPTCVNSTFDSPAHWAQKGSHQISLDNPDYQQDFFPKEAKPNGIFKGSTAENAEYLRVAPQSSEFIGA
Text: as §1, §2, §3

EGFR^L858R/T790M/C797S = EGFR^L858R/T790M/C797S (Homo sapiens, UniProt P00533, C797S/L858R/T790M); experiment: HTRF KinEASE-TK in vitro kinase assay, EGFR L858R/T790M/C797S (LTC); type: biochemical; settings: EGFR L858R/T790M/C797S kinase inhibition
Sequence of EGFR^L858R/T790M/C797S (P00533 25-1210 T790M/C797S/L858R): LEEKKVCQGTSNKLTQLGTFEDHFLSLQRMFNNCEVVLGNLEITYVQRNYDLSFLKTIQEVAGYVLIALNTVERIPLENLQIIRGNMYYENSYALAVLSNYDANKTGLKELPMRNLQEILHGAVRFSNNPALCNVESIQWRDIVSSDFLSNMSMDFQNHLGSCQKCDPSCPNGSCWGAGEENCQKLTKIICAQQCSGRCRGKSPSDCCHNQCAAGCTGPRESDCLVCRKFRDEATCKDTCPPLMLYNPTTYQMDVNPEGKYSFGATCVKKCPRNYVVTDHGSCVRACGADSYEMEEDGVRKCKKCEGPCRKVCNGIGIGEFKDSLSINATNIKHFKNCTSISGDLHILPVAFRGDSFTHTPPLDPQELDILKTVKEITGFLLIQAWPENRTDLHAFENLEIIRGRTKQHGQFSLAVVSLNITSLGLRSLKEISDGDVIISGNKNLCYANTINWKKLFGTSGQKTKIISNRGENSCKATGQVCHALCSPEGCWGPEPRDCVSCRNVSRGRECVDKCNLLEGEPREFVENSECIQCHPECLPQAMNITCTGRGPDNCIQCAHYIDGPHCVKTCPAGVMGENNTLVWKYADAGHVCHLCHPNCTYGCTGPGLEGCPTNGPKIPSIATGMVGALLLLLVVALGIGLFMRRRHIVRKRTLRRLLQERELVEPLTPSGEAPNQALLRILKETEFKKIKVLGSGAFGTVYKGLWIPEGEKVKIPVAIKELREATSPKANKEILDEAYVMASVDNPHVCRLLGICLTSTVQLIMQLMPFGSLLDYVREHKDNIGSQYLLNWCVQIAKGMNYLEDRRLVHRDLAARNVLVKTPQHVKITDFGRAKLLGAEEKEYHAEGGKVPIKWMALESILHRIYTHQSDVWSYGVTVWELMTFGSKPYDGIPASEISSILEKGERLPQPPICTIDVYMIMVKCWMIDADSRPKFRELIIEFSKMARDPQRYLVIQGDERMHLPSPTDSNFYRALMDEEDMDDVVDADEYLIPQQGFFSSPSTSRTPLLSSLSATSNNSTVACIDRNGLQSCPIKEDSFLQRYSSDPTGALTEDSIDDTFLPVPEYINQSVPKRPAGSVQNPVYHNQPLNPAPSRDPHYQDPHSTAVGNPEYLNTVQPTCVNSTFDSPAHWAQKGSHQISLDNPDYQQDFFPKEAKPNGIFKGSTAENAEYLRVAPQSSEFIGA
Text: as §4, §5, §2, §3

EGFR^L858R = EGFR^L858R (Homo sapiens, UniProt P00533, L858R); experiment: HTRF KinEASE-TK in vitro kinase assay, EGFR L858R (L); type: biochemical; settings: EGFR L858R kinase inhibition
Sequence of EGFR^L858R (P00533 25-1210 L858R): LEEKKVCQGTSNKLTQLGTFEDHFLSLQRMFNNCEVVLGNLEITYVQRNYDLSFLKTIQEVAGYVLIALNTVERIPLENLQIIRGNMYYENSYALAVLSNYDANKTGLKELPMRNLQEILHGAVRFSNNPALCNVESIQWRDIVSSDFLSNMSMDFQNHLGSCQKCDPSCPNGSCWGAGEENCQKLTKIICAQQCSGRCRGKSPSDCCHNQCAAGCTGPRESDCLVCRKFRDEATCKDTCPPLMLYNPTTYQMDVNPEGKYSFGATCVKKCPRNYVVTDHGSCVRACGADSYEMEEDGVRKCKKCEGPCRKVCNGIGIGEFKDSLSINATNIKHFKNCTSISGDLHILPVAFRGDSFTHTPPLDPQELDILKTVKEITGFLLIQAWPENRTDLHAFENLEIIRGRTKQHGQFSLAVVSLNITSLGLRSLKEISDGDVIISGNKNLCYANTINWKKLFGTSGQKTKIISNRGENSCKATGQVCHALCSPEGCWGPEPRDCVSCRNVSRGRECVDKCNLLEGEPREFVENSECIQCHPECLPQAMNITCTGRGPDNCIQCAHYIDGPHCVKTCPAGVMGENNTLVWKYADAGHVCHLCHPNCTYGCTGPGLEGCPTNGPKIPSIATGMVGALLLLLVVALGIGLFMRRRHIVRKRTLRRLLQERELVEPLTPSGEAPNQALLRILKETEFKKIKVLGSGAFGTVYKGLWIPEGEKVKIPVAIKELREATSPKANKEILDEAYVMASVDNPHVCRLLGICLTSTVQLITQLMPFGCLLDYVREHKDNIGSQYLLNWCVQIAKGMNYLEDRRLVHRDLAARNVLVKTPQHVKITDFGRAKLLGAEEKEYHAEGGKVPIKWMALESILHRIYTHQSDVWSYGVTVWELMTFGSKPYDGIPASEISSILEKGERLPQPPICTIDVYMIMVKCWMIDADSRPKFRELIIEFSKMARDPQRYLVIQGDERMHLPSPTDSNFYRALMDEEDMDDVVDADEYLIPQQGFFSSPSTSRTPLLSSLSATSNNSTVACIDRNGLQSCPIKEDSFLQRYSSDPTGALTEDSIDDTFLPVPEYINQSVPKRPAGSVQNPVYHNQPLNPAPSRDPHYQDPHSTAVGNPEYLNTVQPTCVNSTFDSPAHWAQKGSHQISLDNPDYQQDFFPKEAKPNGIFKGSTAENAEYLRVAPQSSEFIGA
Text: as §4, §5, §2, §3

Row | IC50 (EGFR^L858R/T790M) [nM] | IC50 (EGFR^L858R/T790M/C797S) [nM] | IC50 (EGFR^L858R) [nM] | Compound | GI50 (Ba/F3 EGFR-Del19/C797S) [nM] | GI50 [1] [nM] | GI50 (Ba/F3 EGFR-Del19/T790M) [nM]
1 | < 50 | < 50 | < 50 | C[C@H]1CCOc2c(cnn2C)-c2nccc(n2)Nc2cc(c(-c3cc(CN4CCN(C)CC4)n(C)c3)cn2)O1 [(127), (10S)-5,10-dimethyl-13-[1-methyl-5-[(4-methylpiperazin-1-yl)methyl]pyrrol-3-yl]-7,11-dioxa-4,5,15,17,21,22-hexazatetracyclo[16.3.1.1^12,16.0^2,6]tricosa-1(22),2(6),3,12(23),13,15,18,20-octaene] | < 50 | < 50 | < 50
2 | < 50 | < 50 | < 50 | C[C@H]1CCOc2c(cnn2C)-c2nccc(n2)Nc2cc(c(-c3cnc(N4CCN(C)CC4)c(OCC(F)(F)F)c3)cn2)O1 [(128)] | 50 to 100 | < 50 | 50 to 100
3 | < 50 | < 50 | < 50 | C[C@H]1CCOc2c(cnn2C)-c2nccc(n2)Nc2cc(c(-c3ccc(N(C)CCN(C)C)cc3)cn2)O1 [(133)] | < 50 | < 50 | < 50
4 | < 50 | < 50 | < 50 | COc1cc(-c2cnc3cc2O[C@@H](C)CCOc2c(cnn2C)-c2nccc(n2)N3)cnc1N1CCN(C)CC1 [(137)] | < 50 | < 50 | < 50
5 | < 50 | < 50 | < 50 | C[C@H]1CCOc2c(cnn2C)-c2nccc(n2)Nc2cc(c(-c3ccc(N(C)CCN(C)C)nc3)cn2)O1 [(138)] | 50 to 100 | < 50 | 50 to 100
6 | < 50 | < 50 | < 50 | C[C@H]1CCOc2c(cnn2C)-c2nccc(n2)Nc2cc(c(-c3cnn(C4CCNCC4)c3)cn2)O1 [(141)] | < 50 | < 50 | < 50
7 | < 50 | < 50 | < 50 | C[C@H]1CCOc2c(cnn2C)-c2nccc(n2)Nc2cc(c(-c3cc(CN4CCOCC4)n(C)n3)cn2)O1 [(144)] | < 50 | < 50 | < 50
8 | < 50 | < 50 | 100 to 1000 | COC(=O)c1cc(-c2cnc3cc2O[C@@H](C)CCOc2c(cnn2C)-c2nccc(n2)N3)n(C)c1 [(145)] | 100 to 1000 | 100 to 1000 | 100 to 1000
9 | < 50 | < 50 | < 50 | C[C@H]1CCOc2c(cnn2C)-c2nccc(n2)Nc2cc(c(-c3ccc(CN4CCN(C)CC4)c(OCC(F)(F)F)c3)cn2)O1 [(146)] | < 50 | < 50 | < 50
10 | < 50 | < 50 | < 50 | COc1cc(-c2cnc3cc2O[C@@H](C)CCOc2c(cnn2C)-c2nccc(n2)N3)ccc1CN1CCN(C)CC1 [(147)] | < 50 | < 50 | < 50
11 | < 50 | < 50 | < 50 | C[C@H]1CCOc2c(cnn2C)-c2nccc(n2)Nc2cc(c(-c3cccc(NCCN(C)C)c3)cn2)O1 [(148)] | < 50 | < 50 | < 50
12 | < 50 | < 50 | < 50 | COc1cc(CN2CCN(C)CC2)ccc1-c1cnc2cc1O[C@@H](C)CCOc1c(cnn1C)-c1nccc(n1)N2 [(149)] | < 50 | < 50 | 50 to 100
13 | < 50 | < 50 | < 50 | CCOc1cc(-c2cnc3cc2O[C@@H](C)CCOc2c(cnn2C)-c2nccc(n2)N3)ccc1CN1CCN(C)CC1 [(150)] | < 50 | < 50 | < 50
14 | < 50 | < 50 | 50 to 100 | C[C@H]1CCOc2c(cnn2C)-c2nccc(n2)Nc2cc(c(Cl)cn2)O1 [(151), (10S)-13-chloro-5,10-dimethyl-7,11-dioxa-4,5,15,17,21,22-hexazatetracyclo[16.3.1.112,16.02,6]tricosa-1(22),2(6),3,12(23),13,15,18,20-octaene] | 100 to 1000 | 100 to 1000 | 100 to 1000
15 | < 50 | < 50 | < 50 | C[C@H]1CCOc2c(cnn2C)-c2nccc(n2)Nc2cc(c(-c3ccc(N4CCN(C)CC4)nc3)cn2)O1 [(152)] | < 50 | < 50 | < 50
16 | < 50 | < 50 | 100 to 1000 | C[C@H]1CCOc2c(cnn2C)-c2nccc(n2)Nc2cc(ccn2)O1 [(153)] | 100 to 1000 | 100 to 1000 | 100 to 1000
17 | < 50 | < 50 | < 50 | C[C@H]1CCOc2c(cnn2C)-c2nccc(n2)Nc2cc(c(-c3cccc(CN4CCN(C)CC4)c3)cn2)O1 [(159)] | < 50 | < 50 | < 50
18 | < 50 | < 50 | < 50 | C[C@H]1CCOc2c(cnn2C)-c2nccc(n2)Nc2cc(c(-c3ccc(CN4CCN(C)CC4)cc3)cn2)O1 [(160)] | < 50 | < 50 | < 50
19 | < 50 | < 50 | < 50 | CC1CCOc2c(cnn2C)-c2nccc(n2)Nc2cc(c(-c3ccc(CN4CCN(C)CC4)cc3)cn2)O1 (stereo not drawn) [(169), 5,10-dimethyl-13-[4-[(4-methylpiperazin-1-yl)methyl]phenyl]-7,11-dioxa-4,5,15,17,21,22-hexazatetracyclo[16.3.1.112,16.02,6]tricosa-1(22),2(6),3,12(23),13,15,18,20-octaene] | < 50 | < 50 | < 50
